System: MPNST complex spheroid with HUVEC/MSC, growth, % test/control
Assay: Anticancer human tumor MPNST cell line growth inhibition [Asc];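 note: compounds left on spheroids for seven days before reading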
Settings: for IC50: curve of first compound; for viability, T/C: stronger effect = lower value
Method in brief: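 Tumor cells were grown as multicellular spheroids with stromal HUVEC and mesenchymal stem cells and treated singly or in combination. Concentrations fell in half-log steps from the clinical Cmax, or from 10 microM where none was known.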

[1] = second compound 0.1 µM, first compound 0.00316 µM
[2] = second compound 0.1 µM, first compound 0.01 µM
[3] = second compound 0.1 µM, first compound 0.0316 µM
[4] = second compound 0.1 µM, first compound 0.1 µM
[5] = second compound 0.316 µM, first compound 0.00316 µM
[6] = second compound 0.316 µM, first compound 0.01 µM
[7] = second compound 0.316 µM, first compound 0.0316 µM
[8] = second compound 0.316 µM, first compound 0.1 µM
[9] = second compound 1 µM, first compound 0.00316 µM
[10] = second compound 1 µM, first compound 0.01 µM
[11] = second compound 1 µM, first compound 0.0316 µM
[12] = second compound 1 µM, first compound 0.1 µM
[13] = second compound 3.16 µM, first compound 0.00316 µM
[14] = second compound 3.16 µM, first compound 0.01 µM
[15] = second compound 3.16 µM, first compound 0.0316 µM
[16] = second compound 3.16 µM, first compound 0.1 µM
[17] = second compound 10 µM, first compound 0.00316 µM
[18] = second compound 10 µM, first compound 0.01 µM
[19] = second compound 10 µM, first compound 0.0316 µM
[20] = second compound 10 µM, first compound 0.1 µM
[21] = second compound 0.1 µM, first compound 0.316 µM
[22] = second compound 0.1 µM, first compound 1 µM
[23] = second compound 0.316 µM, first compound 0.316 µM
[24] = second compound 0.316 µM, first compound 1 µM
[25] = second compound 1 µM, first compound 0.316 µM
[26] = second compound 1 µM, first compound 1 µM
[27] = second compound 3.16 µM, first compound 0.316 µM
[28] = second compound 3.16 µM, first compound 1 µM
[29] = second compound 10 µM, first compound 0.316 µM
[30] = second compound 10 µM, first compound 1 µM

Work on `Cc1nc(N2CCC3(CC2)COC(C)C3N)c(CO)nc1Sc1ccnc(N)c1Cl` (configuration not stated) + CNC(C)C(=O)NC1CN(S(=O)(=O)c2cccc(S(=O)(=O)N3CCC4CCC(C(=O)NC(c5ccccc5)c5ccccc5)N4C(=O)C(NC(=O)C(C)NC)C3)c2)CCC2CCC(C(=O)NC(c3ccccc3)c3ccccc3)N2C1=O yielded an IC50 (second compound 0.00316 µM) of 105 nM, an IC50 (second compound 0.01 µM) of 125 nM and an IC50 (second compound 0.0316 µM) of 119 nM. The IC50 (second compound 0.1 µM) was 157 nM, the IC50 (second compound 0.316 µM) was 647 nM and the IC50 (second compound 1 µM) was 300 nM. The viability, T/C (second compound 0.00316 µM, first compound 0.00949 µM) was 90.5%, the viability, T/C (second compound 0.00316 µM, first compound 0.03 µM) was 56.4% and the viability, T/C (second compound 0.00316 µM, first compound 0.0949 µM) was 57%. It also gave a viability, T/C (second compound 0.00316 µM, first compound 0.3 µM) of 41.5%, a viability, T/C (second compound 0.00316 µM, first compound 0.949 µM) of 62.1% and a viability, T/C (second compound 0.00316 µM, first compound 3 µM) of 30.6%. It also gave a viability, T/C (second compound 0.01 µM, first compound 0.00949 µM) of 103%, a viability, T/C (second compound 0.01 µM, first compound 0.03 µM) of 54% and a viability, T/C (second compound 0.01 µM, first compound 0.0949 µM) of 60.7%. For the same molecule, the viability, T/C (second compound 0.01 µM, first compound 0.3 µM) was 51.6%, the viability, T/C (second compound 0.01 µM, first compound 0.949 µM) was 39.5% and the viability, T/C (second compound 0.01 µM, first compound 3 µM) was 25%. The viability, T/C (second compound 0.0316 µM, first compound 0.00949 µM) was 114%, the viability, T/C (second compound 0.0316 µM, first compound 0.03 µM) was 59.2% and the viability, T/C (second compound 0.0316 µM, first compound 0.0949 µM) was 65.9%. For the same molecule, the viability, T/C (second compound 0.0316 µM, first compound 0.3 µM) was 40.1%, the viability, T/C (second compound 0.0316 µM, first compound 0.949 µM) was 42.8% and the viability, T/C (second compound 0.0316 µM, first compound 3 µM) was 40%. It also gave a viability, T/C (second compound 0.1 µM, first compound 0.00949 µM) of 68.9%, a viability, T/C (second compound 0.1 µM, first compound 0.03 µM) of 66.1% and a viability, T/C (second compound 0.1 µM, first compound 0.0949 µM) of 52.5%. For the same molecule, the viability, T/C (second compound 0.1 µM, first compound 0.3 µM) was 45.8%, the viability, T/C (second compound 0.1 µM, first compound 0.949 µM) was 32.6% and the viability, T/C (second compound 0.1 µM, first compound 3 µM) was 28.8%. The viability, T/C (second compound 0.316 µM, first compound 0.00949 µM) was 60.8%, the viability, T/C (second compound 0.316 µM, first compound 0.03 µM) was 80.8% and the viability, T/C (second compound 0.316 µM, first compound 0.0949 µM) was 60.3%. For the same molecule, the viability, T/C (second compound 0.316 µM, first compound 0.3 µM) was 57.4%, the viability, T/C (second compound 0.316 µM, first compound 0.949 µM) was 47% and the viability, T/C (second compound 0.316 µM, first compound 3 µM) was 31.7%. It also gave a viability, T/C (second compound 1 µM, first compound 0.00949 µM) of 71.5%, a viability, T/C (second compound 1 µM, first compound 0.03 µM) of 67.8% and a viability, T/C (second compound 1 µM, first compound 0.0949 µM) of 49.9%. For the same molecule, the viability, T/C (second compound 1 µM, first compound 0.3 µM) was 48.1%, the viability, T/C (second compound 1 µM, first compound 0.949 µM) was 52.9% and the viability, T/C (second compound 1 µM, first compound 3 µM) was 28.6%.

Work on `Cn1ncnc1[C@H]1c2n[nH]c(=O)c3cc(F)cc(c23)N[C@@H]1c1ccc(F)cc1` + Cc1c(S(C)(=O)=O)c(-c2cc(F)cc(N3CCN(c4ccc(NS(=O)(=O)c5ccc(NC(CCN6CCC(C(=O)OCCCP(=O)(O)O)CC6)CSc6ccccc6)c(S(=O)(=O)C(F)(F)F)c5)cc4)CC3)c2)c(-c2ccc(Cl)cc2)n1C(C)C yielded an IC50 (second compound 0.1 µM) of over 100 nM, an IC50 (second compound 0.316 µM) of over 100 nM and an IC50 (second compound 1 µM) of over 100 nM. It also gave an IC50 (second compound 3.16 µM) of over 100 nM, an IC50 (second compound 10 µM) of over 100 nM and a viability, T/C (second compound 0.1 µM, first compound 0.000316 µM) of 78.7%. The viability, T/C (second compound 0.1 µM, first compound 0.001 µM) was 77.9%, the viability, T/C [1] was 72.1% and the viability, T/C [2] was 71.5%. It also gave a viability, T/C [3] of 77.2%, a viability, T/C [4] of 50.6% and a viability, T/C (second compound 0.316 µM, first compound 0.000316 µM) of 71.8%. The viability, T/C (second compound 0.316 µM, first compound 0.001 µM) was 74.6%, the viability, T/C [5] was 80.4% and the viability, T/C [6] was 97.1%. It also gave a viability, T/C [7] of 66.9%, a viability, T/C [8] of 59.8% and a viability, T/C (second compound 1 µM, first compound 0.000316 µM) of 84.7%. For the same molecule, the viability, T/C (second compound 1 µM, first compound 0.001 µM) was 78.4%, the viability, T/C [9] was 93.8% and the viability, T/C [10] was 72.1%. It also gave a viability, T/C [11] of 55.9%, a viability, T/C [12] of 65.2% and a viability, T/C (second compound 3.16 µM, first compound 0.000316 µM) of 86.7%. It also gave a viability, T/C (second compound 3.16 µM, first compound 0.001 µM) of 75.8%, a viability, T/C [13] of 72.6% and a viability, T/C [14] of 63.3%. It also gave a viability, T/C [15] of 61%, a viability, T/C [16] of 56% and a viability, T/C (second compound 10 µM, first compound 0.000316 µM) of 100%. The viability, T/C (second compound 10 µM, first compound 0.001 µM) was 84.8%, the viability, T/C [17] was 66.1% and the viability, T/C [18] was 64.2%. For the same molecule, the viability, T/C [19] was 60.2% and the viability, T/C [20] was 73.6%.

Molecule `O=C(c1cc(Cc2n[nH]c(=O)c3ccccc23)ccc1F)N1CCN(C(=O)C2CC2)CC1` + Cc1c(S(C)(=O)=O)c(-c2cc(F)cc(N3CCN(c4ccc(NS(=O)(=O)c5ccc(NC(CCN6CCC(C(=O)OCCCP(=O)(O)O)CC6)CSc6ccccc6)c(S(=O)(=O)C(F)(F)F)c5)cc4)CC3)c2)c(-c2ccc(Cl)cc2)n1C(C)C has an IC50 (second compound 0.1 µM) of over 10000 nM, an IC50 (second compound 0.316 µM) of over 10000 nM and an IC50 (second compound 1 µM) of 9830 nM. For the same molecule, the IC50 (second compound 3.16 µM) was over 10000 nM, the IC50 (second compound 10 µM) was over 10000 nM and the viability, T/C [3] was 81.9%. The viability, T/C [4] was 59.6%, the viability, T/C [21] was 68.3% and the viability, T/C [22] was 64.5%. For the same molecule, the viability, T/C (second compound 0.1 µM, first compound 3.16 µM) was 81.1%, the viability, T/C (second compound 0.1 µM, first compound 10 µM) was 64.5% and the viability, T/C [7] was 70.9%. For the same molecule, the viability, T/C [8] was 67.1%, the viability, T/C [23] was 56.8% and the viability, T/C [24] was 69.5%. For the same molecule, the viability, T/C (second compound 0.316 µM, first compound 3.16 µM) was 60.8%, the viability, T/C (second compound 0.316 µM, first compound 10 µM) was 49.8% and the viability, T/C [11] was 58.5%. The viability, T/C [12] was 78.6%, the viability, T/C [25] was 65.6% and the viability, T/C [26] was 79.7%. For the same molecule, the viability, T/C (second compound 1 µM, first compound 3.16 µM) was 72.6%, the viability, T/C (second compound 1 µM, first compound 10 µM) was 49.7% and the viability, T/C [15] was 101%. The viability, T/C [16] was 72.9%, the viability, T/C [27] was 77.1% and the viability, T/C [28] was 64%. The viability, T/C (second compound 3.16 µM, first compound 3.16 µM) was 58.8%, the viability, T/C (second compound 3.16 µM, first compound 10 µM) was 51.5% and the viability, T/C [19] was 75%. It also gave a viability, T/C [20] of 85.8%, a viability, T/C [29] of 76.9% and a viability, T/C [30] of 62.5%. It also gave a viability, T/C (second compound 10 µM, first compound 3.16 µM) of 68.9% and a viability, T/C (second compound 10 µM, first compound 10 µM) of 49%.

Molecule `O=C(c1ccc(F)c(F)c1Nc1ccc(I)cc1F)N1CC(O)([C@@H]2CCCCN2)C1` + Cc1c(S(C)(=O)=O)c(-c2cc(F)cc(N3CCN(c4ccc(NS(=O)(=O)c5ccc(NC(CCN6CCC(C(=O)OCCCP(=O)(O)O)CC6)CSc6ccccc6)c(S(=O)(=O)C(F)(F)F)c5)cc4)CC3)c2)c(-c2ccc(Cl)cc2)n1C(C)C has an IC50 (second compound 0.1 µM) of 303 nM, an IC50 (second compound 0.316 µM) of 336 nM and an IC50 (second compound 1 µM) of 259 nM. For the same molecule, the IC50 (second compound 3.16 µM) was 240 nM, the IC50 (second compound 10 µM) was 181 nM and the viability, T/C [1] was 62.2%. It also gave a viability, T/C [2] of 69.7%, a viability, T/C [3] of 77.1% and a viability, T/C [4] of 95.3%. The viability, T/C [21] was 49%, the viability, T/C [22] was 22.4% and the viability, T/C [5] was 83%. The viability, T/C [6] was 80.3%, the viability, T/C [7] was 107% and the viability, T/C [8] was 106%. For the same molecule, the viability, T/C [23] was 51.9%, the viability, T/C [24] was 16.5% and the viability, T/C [9] was 82.9%. It also gave a viability, T/C [10] of 80.6%, a viability, T/C [11] of 106% and a viability, T/C [12] of 77%. For the same molecule, the viability, T/C [25] was 44.3%, the viability, T/C [26] was 13.2% and the viability, T/C [13] was 86.2%. For the same molecule, the viability, T/C [14] was 90.3%, the viability, T/C [15] was 80.7% and the viability, T/C [16] was 110%. For the same molecule, the viability, T/C [27] was 36.6%, the viability, T/C [28] was 14.5% and the viability, T/C [17] was 86.3%. It also gave a viability, T/C [18] of 81.9%, a viability, T/C [19] of 82.5% and a viability, T/C [20] of 72.8%. It also gave a viability, T/C [29] of 28.8% and a viability, T/C [30] of 8.55%.

— PubChem BioAssay AID1963442 (Molecular Pharmacology Branch, DTP, NCI, 2024)
